The text below walks through data of patent US8426438B2, “Heterocyclic-fused pyrazolo[4,3-c]pyridin-3-one M1 receptor positive allosteric modulators” (Merck Sharp & Dohme Corp., priority 2009, dated 2013).

Structures are written as SMILES.

This assay deals with T1, acetylcholine muscarinic M1 receptor (CHOnfat/hM1 cells) (Homo sapiens, UniProt P11229).
T1 construct: expressed in transfected cells; host or cells: CHOnfat cells (CHO, Geneticin selection)
T1 sequence (P11229 1-460): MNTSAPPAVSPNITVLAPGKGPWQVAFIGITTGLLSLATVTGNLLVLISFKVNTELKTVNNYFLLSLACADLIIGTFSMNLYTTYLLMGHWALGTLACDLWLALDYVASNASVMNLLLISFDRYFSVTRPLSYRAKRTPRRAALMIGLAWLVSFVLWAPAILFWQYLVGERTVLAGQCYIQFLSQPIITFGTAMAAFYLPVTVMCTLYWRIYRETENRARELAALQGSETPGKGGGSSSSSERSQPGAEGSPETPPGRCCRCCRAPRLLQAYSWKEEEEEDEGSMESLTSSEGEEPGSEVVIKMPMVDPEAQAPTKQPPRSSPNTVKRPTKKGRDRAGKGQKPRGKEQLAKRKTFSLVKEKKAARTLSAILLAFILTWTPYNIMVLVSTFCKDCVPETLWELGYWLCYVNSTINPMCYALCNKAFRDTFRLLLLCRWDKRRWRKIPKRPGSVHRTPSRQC
The assay is described as follows: muscarinic FLIPR intracellular calcium assay for M1 positive allosteric modulator activity (acetylcholine EC20). The assay is classed as cell-based. To be noted: 4 min preincubation, then EC20 acetylcholine (3 nM final), read-out: IP Value (inflection point). Here is the method:
The assay studies the effect of one or several concentrations of test compounds on basal or acetylcholine-stimulated Ca^2+ levels using FLIPR.
Compounds are prepared and subjected to a preincubation period of 4 min. Thereafter, a single EC20 concentration of acetylcholine is added to each well (3 nM final). The intracellular Ca^2+ level of each sample is measured and compared to an acetylcholine control to determine any modulatory activity.
CHOnfat/hM1, hM2, hM3 or hM4 cells are plated 24 hr before the assay at a density of 18,000 cells/well (100 up in a 384 well plate. CHOnfat/hM1 and CHOnfat/hM3 Growth Medium: 90% DMEM (Hi Glucose); 10% HI FBS; 2 mM L-glutamine; 0.1 mM NEAA; Pen-Strep; and 1 mg/ml Geneticin, are added. For M2Gqi5CHOnfat and M4Gqi5CHOnfat cells, an additional 600 μg/ml hygrornycin is added.
384 well plate, 120 μL addition plate; 96-well Whatman 2 ml Uniplate Incubator, 37° C., 5% CO2; Skatron EMBLA-384 Plate Washer; Multimek Pipetting System; Genesis Freedom 200 System; Mosquito System; Temo Nanolitre Pipetting System; and FLIPR^384 Fluorometric Imaging Plate Reader System are used.
Assay Buffer: Hanks Balanced Salt Solution, with 20 mM Hepes, 2.5 mM Probenecid (Sigma P-8761) first dissolved in 1 N NaOH, 1% Bovine Serum Albumin (Sigma A-9647). Dye Loading Buffer: Assay Buffer plus 1% Fetal Bovine Serum and Fluo-4AM/Pluronic Acid Mixture. 2 mM Fluo-4AM ester stock in DMSO (Molecular Probes F-14202) Concentration of 2 μM in buffer for a final concentration of 1 μM in Assay. 20% Pluronic Acid Solution stock, with concentration of 0.04% in Buffer, 0.02% in Assay.
65 μL of 2 mM Fluo-4AM are mixed with 130 μL of 20% Pluronic Acid. The resulting solution and 650 μL FBS is added to the assay buffer for a total volume of 65 mL. Positive Controls: 4-Br-A23187: 10 mM in DMSO; final concentration 10 μM. Acetylcholine: 10 mM in water, working stock at both 20 μM and 30 μM in assay buffer, final concentration of 10 μM. This is used to check the maximum stimulation of the CHOK1/hM1 cells. 20 μM (2×) acetylcholine is added in the preincubation part of the assay, and the 30 μM (3×) stock is added in the second part. (EC20) Acetylcholine: 10 mM in water, working stock of 9 nM (3×), and final concentration in assay is 3 nM. This is used after the preincubation with test compounds. Addition of the EC20 Acetylcholine to each well with a test compound will ascertain any modulator activity. 24 wells contain 3 nM Acetylcholine alone as a control.
Compounds are titrated in 96-well plates (columns 2-11), 100% DMSO, started at a concentration of 15 mM (150× stock concentration), and 3-fold serial dilutions using Genesis Freedom200 System. Four 96-well plates are combined into a 384-well plate using Mosquito Nanolitre Pipetting System by transferring 1 μl of serial diluted compounds to each well, and 1 mM acetylcholine (100× stock concentration) were added as a control. Using Temo, 49 μl assay buffer is added to each well of the 384-well plate right before assay.
In a 96-well Whatman 2 ml Uniplate, 9 nM Acetylcholine (3×) is pipetted into wells corresponding to the screening compounds, and into control wells. The 30 μM acetylcholine control (3×) is added into control wells, and the 3× agonist plate is transferred into a 384 well plate.
Cells are washed three times with 100 μL of buffer, leaving […] of buffer in each well. Using Multimek, 30 μL of Dye Loading Buffer is added into each well and incubated at 37° C., 5% CO2 for up to one hr.
After 60 min, the cells are washed three times with 100 μL of buffer, leaving 30 μL of buffer in each well. The cell plate, screening plate, and agonist addition plates are placed on the platform in the FLIPR and the door closed. A signal test to check background fluorescence and basal fluorescence signal is performed. Laser intensity is adjusted if necessary. […]
With `O=c1c2cn(Cc3ccc(-n4cccn4)cc3)c3c(c-2nn1-c1ccccc1F)CCC3` [Example 8, 2-(2-Fluorophenyl)-5-{[4-(1H-pyrazol-1-yl)phenyl]methyl}-5,6,7,8-tetrahydrocyclopenta[b]pyrazolo[3,4-d]pyridine-3(2H)-one], the EC50 was found to be 0.77 µM.
In the case of `O=c1c2cn(Cc3ccc(-n4cccn4)cc3)c3c(c-2nn1-c1ccccc1F)CCCC3` [Example 9, 2-(2-Fluorophenyl)-5-{[4-(1H-pyrazol-1-yl)phenyl]methyl}-2,5,6,7,8,9-hexahydro-3H-pyrazolo[3,4-d]pyridine-3(2H)-one], the EC50 was 0.36 µM.
With `O=c1c2cn(Cc3ccc(-n4cccn4)cc3)c3c(c-2nn1-c1ccccc1F)C(O)CCC3` (racemic) [Example 11, (±)-2-(2-Fluorophenyl)-9-hydroxy-5-{[4-(1H-pyrazol-1-yl)phenyl]methyl}-2,5,6,7,8,9-hexahydro-3H-pyrazolo[4,3-c]quinolin-3-one] the figure was 1.3 µM.
As to `Cc1ccccc1-n1nc2c3nccnc3n(Cc3ccc(-n4cccn4)cc3)cc-2c1=O` [Example 6, 2-(2-Methylphenyl)-5-{[4-(1H-pyrazol-1-yl)phenyl]methyl}-2,5-dihydro-3H-pyrazolo[3′,4′:4,5]-pyrido[2,3-b]pyrazin-3-one], the EC50 came to 0.759 µM.
For the molecule `O=c1c2cn(Cc3ccc(-n4cccn4)cc3)c3ccsc3c-2nn1-c1c(Cl)cncc1Cl` [Example 15, 2-(3,5-Dichloropyridin-4-yl)-5-{[4-(1H-pyrazol-1-yl)phenyl]methyl}-2,5-dihydro-3H-pyrazolo[3,4-d]thieno[3,2-b]pyridin-3-one], the EC50 stood at 0.065 µM.
Regarding `O=c1c2cn(Cc3ccc(-n4cccn4)cc3)c3ccsc3c-2nn1-c1ccccc1F` [Example 12, 2-(2-Fluorophenyl)-5-{[4-(1H-pyrazol-1-yl)phenyl]methyl}-2,5-dihydro-3H-pyrazolo[4,3-d]thieno[3,2-b]pyridin-3-one], the EC50 amounted to 0.02 µM.
Turning to `Cc1ccccc1-n1nc2c3sccc3n(Cc3ccc(-n4cccn4)cc3)cc-2c1=O` [Example 13, 2-(2-Methylphenyl)-5-{[4-(1H-pyrazol-1-yl)phenyl]methyl}-2,5-dihydro-3H-pyrazolo[3,4-d]thieno[3,2-b]pyridin-3-one], the EC50 was determined as 0.108 µM.
With `O=c1c2cn(Cc3ccc(-n4cccn4)cc3)c3ncccc3c-2nn1-c1ccccc1F` [Example 2, 2-(2-Fluorophenyl)-5-{[4-(1H-pyrazol-1-yl)phenyl]methyl}-2,5-dihydro-3H-pyrazolo[4,3-c]-1,8-naphthyridin-3-one] the figure was 0.318 µM; with `O=c1c2cn(Cc3ccc(-n4cccn4)cc3)c3cnccc3c-2nn1-c1ccccc1F` [Example 4, 2-(2-Fluorophenyl)-5-{[4-(1H-pyrazol-1-yl)phenyl]methyl}-2,5-dihydro-3H-pyrazolo[4,3-c]-1,7-naphthyridin-3-one], 7.67 µM.
With `O=c1c2cn(Cc3ccc(-n4cccn4)cc3)c3cccnc3c-2nn1-c1ccccc1F` [Example 1, 2-(2-Fluorophenyl)-5-{[4-(1H-pyrazol-1-yl)phenyl]methyl}-2,5-dihydro-3H-pyrazolo[4,3-c]-1,5-naphthyridin-3-one] the figure was 0.16 µM.
